Reference: PMC7617969, “Carboxylic Acid Bioisosteres Boost Nurr1 Agonist Selectivity” (Journal of medicinal chemistry, 2025)
“And” between values parts separate entries of the source, which are not always exact repeats. Equal entries are not always repeated.

Columns and labels:
[1] = target: T1, Nurr1 (Homo sapiens, UniProt P43354); assay: Gal4-Nurr1 hybrid reporter gene assay; assay type: cell-based
T1 construct: expressed in transfected cells; host or cells: HEK293T

[2] = target: T2, rDHODH (Rattus norvegicus, UniProt Q63707); assay: rat DHODH inhibition assay; assay type: biochemical, rats
T2 construct: using an N-terminally truncated recombinant DHODH enzyme as described previously[20]
T2 sequence (Q63707 31-395): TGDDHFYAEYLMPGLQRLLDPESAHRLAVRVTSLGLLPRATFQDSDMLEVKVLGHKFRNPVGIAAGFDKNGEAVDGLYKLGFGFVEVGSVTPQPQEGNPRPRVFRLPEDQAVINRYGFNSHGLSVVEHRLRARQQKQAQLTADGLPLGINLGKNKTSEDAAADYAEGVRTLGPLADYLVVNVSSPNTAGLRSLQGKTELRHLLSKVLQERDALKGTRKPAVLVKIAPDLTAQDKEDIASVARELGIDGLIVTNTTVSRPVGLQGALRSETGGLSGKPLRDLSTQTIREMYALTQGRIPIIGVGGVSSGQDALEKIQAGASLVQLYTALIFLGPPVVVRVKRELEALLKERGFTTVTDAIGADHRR
Experimental: Inhibition of DHODH was measured in vitro using an N-terminally truncated recombinant DHODH enzyme as described previously. The final assay mixture contained 60 μM 2,6-dichloroindophenol, 50 μM decylubiquinone, 100 μM dihydroorotate, and the DHODH protein whose concentration was adjusted in a way that an average slope of approx. 0.2 AU/min served as the positive control (no inhibitor). Measurements were performed in 50 mM TrisHCl, 150 mM KCl, and 0.1% Triton X-100 at pH 8.0 and at 30°C with at least six different concentrations of a test compound. The reaction was started by adding dihydroorotate and measuring the absorption at 600 nm for 2 min. Each test compound concentration used for IC50 calculation was tested in at least three independent experiments.

[3] = tested on: THR; assay: Gal4 hybrid reporter gene assay, selectivity panel; assay type: cell-based, human; details: 1 µM; relative activation compared to reference agonists
Experimental: (§1) NR modulation was determined in Gal4 hybrid reporter gene assays in HEK293T cells (German Collection of Microorganisms and Cell Culture GmbH, DSMZ) using pFR-Luc (Stratagene, La Jolla, CA, USA; reporter), pRL-SV40 (Promega, Madison, WI, USA; internal control) and pFA-CMV-hNR-LBD[47],[48] plasmids coding for the hinge region and ligand binding domain of the canonical isoform of the respective NR. Cells were cultured in Dulbecco’s modified Eagle’s medium (DMEM), high glucose supplemented with 10% fetal calf serum (FCS), sodium pyruvate (1 mM), penicillin (100 U/mL), and streptomycin (100 μg/mL) at 37°C and 5% CO2 and seeded in 96-well plates (3×10^4 cells/well). After 24 h, medium was changed to Opti-MEM without supplements and cells were transiently transfected using Lipofectamine LTX reagent (Invitrogen, Carlsbad, CA, USA) according to the manufacturer’s protocol. Five hours after transfection, cells were incubated with the test compounds in Opti-MEM supplemented with penicillin (100 U/mL), streptomycin (100 μg/mL) and 0.1% DMSO for 16 h before luciferase activity was measured using the Dual-Glo Luciferase Assay System (Promega) according to the manufacturer’s protocol on a Tecan Spark luminometer (Tecan Deutschland GmbH, Crailsheim, Germany). Firefly luminescence was divided by Renilla luminescence and multiplied by 1000 resulting in relative light units (RLU) to normalize for transfection efficiency and cell growth. Fold activation was obtained by dividing the mean RLU of test compound by the mean RLU of the untreated control. All samples were tested in at least three biologically independent experiments in duplicates. For dose-response curve fitting and calculation of EC50 values, the equation “[Agonist] vs. response -- Variable slope (four parameters)” was used in GraphPad Prism (version 7.00, GraphPad Software, La Jolla, CA, USA).

[4] = target: T3, CAR (Homo sapiens, UniProt Q14994); assay: Gal4 hybrid reporter gene assay, selectivity panel; assay type: cell-based; details: 1 µM; relative activation compared to reference agonists
T3 construct: expressed in transfected cells; host or cells: HEK293T
T3 sequence (Q14994 109-352 limits assumed): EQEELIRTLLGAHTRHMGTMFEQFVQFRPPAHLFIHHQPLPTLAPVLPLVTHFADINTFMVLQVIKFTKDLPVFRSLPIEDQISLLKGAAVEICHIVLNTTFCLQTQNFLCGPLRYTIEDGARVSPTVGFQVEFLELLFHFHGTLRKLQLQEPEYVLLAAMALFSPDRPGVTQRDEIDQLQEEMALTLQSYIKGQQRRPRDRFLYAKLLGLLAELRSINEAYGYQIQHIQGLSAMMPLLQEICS
Experimental: as §1

[5] = target: T4, FXR (Homo sapiens, UniProt Q96RI1); assay: Gal4 hybrid reporter gene assay, selectivity panel; assay type: cell-based; details: 1 µM; relative activation compared to reference agonists
T4 construct: expressed in transfected cells; host or cells: HEK293T
T4 sequence (Q96RI1 262-486 limits assumed): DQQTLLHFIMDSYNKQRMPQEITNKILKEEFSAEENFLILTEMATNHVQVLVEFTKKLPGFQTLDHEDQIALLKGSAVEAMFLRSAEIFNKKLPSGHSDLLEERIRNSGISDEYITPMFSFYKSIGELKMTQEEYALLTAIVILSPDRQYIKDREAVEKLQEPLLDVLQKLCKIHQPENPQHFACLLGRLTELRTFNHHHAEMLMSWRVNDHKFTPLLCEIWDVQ
Experimental: as §1

[6] = target: T5, PXR (Homo sapiens, UniProt O75469); assay: Gal4 hybrid reporter gene assay, selectivity panel; assay type: cell-based; details: 1 µM; relative activation compared to reference agonists
T5 construct: expressed in transfected cells; host or cells: HEK293T
T5 sequence (O75469 146-433): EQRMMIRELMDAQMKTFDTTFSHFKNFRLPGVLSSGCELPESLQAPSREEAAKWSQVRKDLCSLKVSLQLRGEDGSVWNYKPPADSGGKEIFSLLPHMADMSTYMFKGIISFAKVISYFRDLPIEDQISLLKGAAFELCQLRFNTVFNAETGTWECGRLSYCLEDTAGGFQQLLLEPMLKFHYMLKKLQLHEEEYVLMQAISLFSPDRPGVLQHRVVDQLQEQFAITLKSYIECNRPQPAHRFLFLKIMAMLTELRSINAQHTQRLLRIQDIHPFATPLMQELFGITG
Experimental: as §1

[7] = target: T6, VDR (Homo sapiens, UniProt P11473); assay: Gal4 hybrid reporter gene assay, selectivity panel; assay type: cell-based; details: 1 µM; relative activation compared to reference agonists
T6 construct: expressed in transfected cells; host or cells: HEK293T
T6 sequence (P11473 127-423 limits assumed): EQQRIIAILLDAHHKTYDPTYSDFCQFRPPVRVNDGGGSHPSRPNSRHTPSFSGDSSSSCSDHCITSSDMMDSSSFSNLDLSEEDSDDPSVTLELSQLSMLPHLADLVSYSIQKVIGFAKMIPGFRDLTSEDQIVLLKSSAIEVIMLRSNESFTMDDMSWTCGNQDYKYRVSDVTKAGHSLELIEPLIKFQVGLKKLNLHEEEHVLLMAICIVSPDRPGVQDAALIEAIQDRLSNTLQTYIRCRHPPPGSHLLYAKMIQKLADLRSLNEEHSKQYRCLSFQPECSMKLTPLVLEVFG
Experimental: as §1

[8] = target: T7, Nurr1 LBD homodimer (Homo sapiens, UniProt P43354); assay: Nurr1 homodimerization assay (HTRF); assay type: biochemical; details: Tb3+-cryptate labeled Nurr1 LBD and sGFP labeled Nurr1 LBD
T7 construct: Biotinylated recombinant Nurr1 LBD protein and sGFP-Nurr1 LBD protein (FRET acceptor) were expressed and purified as described previously[28]; sGFP-Nurr1 LBD protein (FRET acceptor) were expressed and purified as described previously[28]; made in house
T7 sequence (P43354 360-595 limits assumed): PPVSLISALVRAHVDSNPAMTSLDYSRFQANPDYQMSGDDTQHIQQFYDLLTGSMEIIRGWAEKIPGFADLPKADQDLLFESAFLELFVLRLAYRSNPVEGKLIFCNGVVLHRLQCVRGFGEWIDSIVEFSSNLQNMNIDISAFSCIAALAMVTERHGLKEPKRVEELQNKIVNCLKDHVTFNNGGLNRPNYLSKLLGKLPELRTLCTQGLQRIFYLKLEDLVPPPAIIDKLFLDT
Experimental: Modulation of Nurr1 LBD homodimerization by 32 was studied in a homogenous time-resolved fluorescence resonance energy transfer (HTRF) based assay. Biotinylated recombinant Nurr1 LBD protein and sGFP-Nurr1 LBD protein (FRET acceptor) were expressed and purified as described previously. […] Free sGFP was added to keep the total GFP content stable at 0.5 μM. Assay solutions were prepared in HTRF assay buffer (25 mM HEPES pH 7.5, 10% (m/v) glycerol, 5 mM DTT) supplemented with 0.1% (w/v) CHAPS as well as 1% DMSO with 32 at fixed concentrations or DMSO alone as negative control (apo). The FRET donor complex formed from biotinylated Nurr1 LBD (final concentration 0.188 nM) and Tb-SA (0.375 nM) was kept constant while the concentration of sGFP-labeled protein was varied. Samples were equilibrated at RT for 2 h before fluorescence intensities (FI) after excitation at 340 nm were recorded at 520 nm for sGFP acceptor fluorescence and 620 nm for Tb-SA donor fluorescence on a Tecan SPARK plate reader (Tecan Group Ltd.). FI520 nm was divided by FI620 nm and multiplied with 10,000 to give a dimensionless HTRF signal.

T1 sequence (P43354 360-595 limits assumed): as above

## COc1cccc(-c2ccc(NC(=O)C3=C(c4nn[nH]n4)CCC3)c(F)c2)c1 [compound 32, N-{3-Fluoro-3’-methoxy-[1,1'-biphenyl]-4-yl}-2-(2H-tetrazol-5-yl)cyclopent-1-ene-1-carboxamide]
[1]
  Nurr1 preference/selectivity over DHODH: > 100 fold
[1]; Gal4-Nurr1 hybrid reporter gene assay, HEK293T cells, mean ± S.E.M., n ≥ 3
  EC50: 90 ± 10 nM
[1]; Gal4-Nurr1 hybrid reporter gene assay, fold activation vs untreated control
  max. activation (Nurr1): 2.5 fold and 2.5±0.1 fold
[1]; IC50(DHODH) / EC50(Nurr1)
  selectivity index DHODH/Nurr1: 110
[1]; supplementary csv, max. activation in %
  efficacy_NR4A2: 250%
[2]
  inhibition at 100 µM: 64 ± 2%
[3]
  activity on THR: no activity
[4]
  activity on CAR: no activity
[5]
  activity on FXR: no activity
[6]
  activity on PXR: no activity
[7]
  activity on VDR: no activity
[8]
  impact on Nurr1 dimer formation: robustly diminished Nurr1 dimer formation
